Columns and labels:
washed platelets [1] = experiment: Washed platelet aggregation (myricetin, gallic acid); type: cell-based, human; details: for inhibition of platelet aggregation (in words): 75-300 μM; for inhibition at 30 µM: Homo sapiens, Platelet
Protocol: Whole blood was centrifuged at 250 × g for 10 min at 22°C to obtain PRP. To obtain washed platelets (WP), PRP was centrifuged twice (1,000 × g, 10 min, 20°C) in the presence of 1.25 μg/ml prostacyclin. The final platelet pellet was resuspended in modified Tyrode's-HEPES buffer, (20 mM N-2-hydroxyethylpiperazine-N'-2-ethanesulfonic acid, 5 mM glucose, 134 mM NaCl, 0.34 mM Na2HPO4, 2.9 mM KCl, 12 mM NaHCO3, and 1 mM MgCl2, pH 7.3) and rested for 30 min at 30°C before experiments. All protocols using human blood samples were approved by the Research Ethics Committees of the Federal University of […] and the University of Reading. PRP and WP aggregation assays were performed in a four-channel aggregometer (Helena Biosciences, […], England). […] Aggregation traces from at least three different donors were recorded for 5 min.

washed platelets [2] = experiment: Flow cytometry: fibrinogen binding and P-selectin exposure; type: cell-based, human
Protocol: Whole blood was centrifuged at 250 × g for 10 min at 22°C to obtain PRP. To obtain washed platelets (WP), PRP was centrifuged twice (1,000 × g, 10 min, 20°C) in the presence of 1.25 μg/ml prostacyclin. The final platelet pellet was resuspended in modified Tyrode's-HEPES buffer, (20 mM N-2-hydroxyethylpiperazine-N'-2-ethanesulfonic acid, 5 mM glucose, 134 mM NaCl, 0.34 mM Na2HPO4, 2.9 mM KCl, 12 mM NaHCO3, and 1 mM MgCl2, pH 7.3) and rested for 30 min at 30°C before experiments. All protocols using human blood samples were approved by the Research Ethics Committees of the Federal University of […] and the University of Reading. WP (2-3 × 10^8 platelets/ml) were incubated with PESc at the same concentrations and conditions used for platelet aggregation experiments. Then WP were incubated for 10 min with thrombin (0.02 U/ml). FITC-conjugated PAC-1 antibody was added for 10 min in the dark and fluorescence read using a flow cytometer FACS Calibur (BD Biosciences, Franklin Lakes, USA). […] FITC-conjugated fibrinogen and PE/Cy5-conjugated anti-human CD62P were incubated for 30 min, then platelets were read after a 25-fold dilution with Tyrodes-HEPES buffer.

PDI = details: insulin turbidimetry, cited from earlier work; for inhibition of PDI (in words): ref Jasuja et al., 2012
washed platelets [3] = experiment: Platelet spreading on collagen or fibrinogen; type: cell-based, human
Protocol: Non-adhered platelets were removed and the coverslip washed three times with PBS. Adhered platelets were fixed using 0.2% paraformaldehyde for 10 min. This solution was then removed and coverslips washed three times with PBS before the addition of 0.1% (v/v) Triton-X to permeabilize the cells. […] Coverslips were mounted onto microscope glass slides and imaged using a 100× oil immersion lens on a Nikon A1-R Confocal microscope.

[4] = system: whole blood on collagen-coated Vena8 bio-chips; experiment: Thrombus formation under flow; type: cell-based, human; details: 30 µM, shear rate 45 dyn/cm^2, 10 min
Protocol: Fluorescence intensity was calculated using NIS Elements Software (Nikon, Tokyo, Japan).

VASP (Ser239) = VASP (Ser239) phosphorylation immunoblotting; type: cell-based, human; details: resting washed platelets, 7.5, 15 and 30 μM, 10 min
Protocol: After protein separation, semi-dry transfer was performed at 15V for 2 h using a BioRad Trans-blot semidry blotter. Membranes were blocked with 5% bovine serum albumin (BSA) for 1 h and incubated with primary antibodies against VASP ([…]) or GAPDH at 1:1,000 v/v dilution overnight. After washing the primary antibody off, […] secondary antibody was incubated for 1 h at room temperature at 1:4,000 v/v dilution. Membranes were visualized using a Typhoon imaging system (GE Healthcare, Hatfield, UK).

recombinant ERp72 = target: T1, recombinant ERp72 (Homo sapiens, UniProt P13667); experiment: Protein fluorescence quenching, ERp72; type: binding
T1 sequence (P13667 21-645): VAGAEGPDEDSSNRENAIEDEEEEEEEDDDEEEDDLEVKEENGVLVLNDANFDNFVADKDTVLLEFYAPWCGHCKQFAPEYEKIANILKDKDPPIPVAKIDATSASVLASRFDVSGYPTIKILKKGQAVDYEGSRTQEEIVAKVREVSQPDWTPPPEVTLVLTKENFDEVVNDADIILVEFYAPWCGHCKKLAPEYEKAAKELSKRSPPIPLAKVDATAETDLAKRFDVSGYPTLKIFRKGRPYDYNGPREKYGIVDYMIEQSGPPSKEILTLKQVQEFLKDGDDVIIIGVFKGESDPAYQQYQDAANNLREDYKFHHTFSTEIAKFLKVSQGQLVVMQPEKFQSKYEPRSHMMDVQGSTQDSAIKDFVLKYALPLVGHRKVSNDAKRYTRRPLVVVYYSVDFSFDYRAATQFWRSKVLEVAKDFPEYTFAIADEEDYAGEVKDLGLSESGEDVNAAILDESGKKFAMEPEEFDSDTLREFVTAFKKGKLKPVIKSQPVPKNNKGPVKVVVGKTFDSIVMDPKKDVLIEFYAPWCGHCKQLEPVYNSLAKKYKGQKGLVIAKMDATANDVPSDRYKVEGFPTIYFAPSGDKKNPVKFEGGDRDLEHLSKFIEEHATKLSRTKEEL

recombinant PDI [5] = target: T2, recombinant PDI (Homo sapiens, UniProt P07237); experiment: Reductase activity (Di-E-GssG), PDI; type: biochemical; details: PDI 2 µM, myricetin 0.01–10 µM, Di-E-GssG probe
recombinant ERp5 [6] = target: T3, recombinant ERp5 (Homo sapiens, UniProt Q15084); experiment: Reductase activity (Di-E-GssG), ERp5; type: biochemical; details: ERp5 2 µM, myricetin 0.01–10 µM, Di-E-GssG probe
T3 sequence (Q15084 20-440): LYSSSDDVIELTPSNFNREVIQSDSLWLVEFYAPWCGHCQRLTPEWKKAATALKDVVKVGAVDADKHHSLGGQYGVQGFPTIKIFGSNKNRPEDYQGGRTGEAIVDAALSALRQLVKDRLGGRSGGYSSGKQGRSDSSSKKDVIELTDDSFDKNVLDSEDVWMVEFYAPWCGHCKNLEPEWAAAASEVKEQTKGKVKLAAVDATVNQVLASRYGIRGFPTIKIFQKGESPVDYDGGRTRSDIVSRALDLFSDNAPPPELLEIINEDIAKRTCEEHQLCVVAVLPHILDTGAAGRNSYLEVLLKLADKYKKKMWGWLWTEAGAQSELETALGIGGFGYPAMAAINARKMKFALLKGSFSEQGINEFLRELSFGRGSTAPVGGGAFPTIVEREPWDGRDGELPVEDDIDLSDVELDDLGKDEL

recombinant ERp5 [7] = target: T3, recombinant ERp5; details: ERp5 2 µM, myricetin 0.01–10 µM, Mean ± SEM
recombinant PDI [8] = target: T2, recombinant PDI; details: Kq=KSV/τ0, τ0 10^-8 s
[9] = parameters: method as in Dang et al., 2014; details: rats, single oral dose of 100 mg/kg; ref Dang et al., 2014; cited from earlier work
recombinant ERp5 [10] = target: T3, recombinant ERp5; experiment: biochemical
recombinant ERp57 = target: T4, recombinant ERp57 (Homo sapiens, UniProt P30101); experiment: biochemical
T4 sequence (P30101 25-505): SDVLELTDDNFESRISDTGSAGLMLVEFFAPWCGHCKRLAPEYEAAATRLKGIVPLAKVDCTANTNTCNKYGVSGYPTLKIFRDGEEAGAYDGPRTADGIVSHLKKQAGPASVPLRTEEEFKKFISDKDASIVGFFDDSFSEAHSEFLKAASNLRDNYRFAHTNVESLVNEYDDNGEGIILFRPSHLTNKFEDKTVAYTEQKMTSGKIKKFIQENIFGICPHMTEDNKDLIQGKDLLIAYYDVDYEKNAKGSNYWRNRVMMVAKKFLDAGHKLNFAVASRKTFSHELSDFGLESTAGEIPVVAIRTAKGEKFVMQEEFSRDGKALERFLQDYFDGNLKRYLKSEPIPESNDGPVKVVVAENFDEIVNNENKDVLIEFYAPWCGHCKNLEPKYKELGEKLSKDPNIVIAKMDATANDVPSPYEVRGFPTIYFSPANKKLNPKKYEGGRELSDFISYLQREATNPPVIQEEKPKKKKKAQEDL

recombinant PDI [11] = target: T2, recombinant PDI; experiment: biochemical

T2 sequence (P07237 18-508): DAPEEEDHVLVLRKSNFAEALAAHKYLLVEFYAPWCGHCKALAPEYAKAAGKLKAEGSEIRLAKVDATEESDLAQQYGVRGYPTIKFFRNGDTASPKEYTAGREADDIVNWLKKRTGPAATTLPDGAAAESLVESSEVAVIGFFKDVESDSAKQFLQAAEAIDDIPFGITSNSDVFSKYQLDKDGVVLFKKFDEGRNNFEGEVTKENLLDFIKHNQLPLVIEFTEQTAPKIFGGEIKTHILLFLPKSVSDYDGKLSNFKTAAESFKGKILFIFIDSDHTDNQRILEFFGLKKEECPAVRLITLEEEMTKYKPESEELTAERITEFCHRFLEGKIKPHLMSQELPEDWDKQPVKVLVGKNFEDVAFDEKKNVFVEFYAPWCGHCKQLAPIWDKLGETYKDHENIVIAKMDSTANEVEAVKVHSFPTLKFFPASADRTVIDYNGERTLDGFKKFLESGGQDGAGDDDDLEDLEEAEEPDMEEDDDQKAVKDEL

Structure (SMILES): O=C(O)c1cc(O)c(O)c(O)c1 [Gallic acid, gallic acid]
- inhibition of platelet aggregation (in words) (washed platelets [1]; TRAP-6-induced): unable to inhibit platelet aggregation, except at the higher concentration used (300 μM)
- inhibition of platelet aggregation (in words) (washed platelets [1]; collagen-induced): unable to inhibit platelet aggregation
- fibrinogen binding (in words) (washed platelets [2]; CRP-activated washed platelets, 150 μM): only able to reduce fibrinogen binding when incubated at 150 μM

Structure (SMILES): O=c1c(O[C@@H]2O[C@H](CO)[C@@H](O)[C@H](O)[C@H]2O)c(-c2ccc(O)c(O)c2)oc2cc(O)cc(O)c12 [isoquercetin]
- inhibition of PDI reductase activity (in words) (PDI; ref Stopa et al., 2017): potent inhibitors of PDI reductase activity

Structure (SMILES): O=c1c(O)c(-c2ccc(O)c(O)c2)oc2cc(O)cc(O)c12 [Quercetin, quercetin]
- inhibition of PDI (in words) (PDI): weak inhibitor of PDI

Structure (SMILES): C[C@@H]1O[C@@H](OC[C@H]2O[C@@H](Oc3c(-c4ccc(O)c(O)c4)oc4cc(O)cc(O)c4c3=O)[C@H](O)[C@@H](O)[C@@H]2O)[C@H](O)[C@H](O)[C@H]1O [rutin]
- inhibition of PDI (in words) (PDI): potent inhibitors of PDI reductase activity

Structure (SMILES): O=c1c(O)c(-c2cc(O)c(O)c(O)c2)oc2cc(O)cc(O)c12 [Myricetin]
- inhibition at 30 µM (washed platelets [1]; TRAP-6-induced): ~60%
- inhibition at 30 µM (washed platelets [1]; collagen-induced): ~80%
- fibrinogen binding (in words) (washed platelets [2]; CRP-activated washed platelets, 15 μM): abolish
- fibrinogen binding (in words) (washed platelets [2]; TRAP-6-activated washed platelets): still inhibited fibrinogen binding
- inhibition at 30 µM (washed platelets [3]; Homo sapiens, Platelet, collagen-coated coverslips, 30 μM): ~25%
- platelet spreading (in words) (washed platelets [3]; fibrinogen-coated coverslips, 7.5-30 μM): no effect
- thrombus formation (fluorescence intensity) (in words) [4]: decreased thrombus formation
- VASP phosphorylation (in words) (VASP (Ser239)): did not induce VASP phosphorylation
- K SV (Stern-Volmer constant) (recombinant ERp72; ERp72 2 µM, myricetin 0.01–10 µM, Mean ± SEM): 27,515 ± 5,675 M^-1
- Kq (quenching rate constant) (recombinant ERp72; ERp72, Kq=KSV/τ0, τ0 10^-8 s): 2.75e+12 M⁻¹ s⁻¹
- K b (binding constant) (recombinant ERp72; ERp72, determined for highest concentration tested): 394000 M⁻¹
- Kd (recombinant ERp72; read-out: K d (dissociation constant)): 2530 nM
- inhibition of reductase activity (in words) (recombinant PDI [5]): inhibit both PDI and ERp5, being more potent against PDI
- inhibition of reductase activity (in words) (recombinant ERp5 [6]): inhibit both PDI and ERp5
- K SV (Stern-Volmer constant) (recombinant ERp5 [7]): 48,750 ± 9,554 M^-1
- Kq (quenching rate constant) (recombinant PDI [8]): 2.12e+12 M⁻¹ s⁻¹
- peak plasma concentration [9]: 10 µM
- Kd (recombinant ERp5 [10]): 1740 nM
- Kd (recombinant ERp57): 1830 nM
- Kd (recombinant PDI [11]): 4260 nM
